Test system: MDA-MB-231
Test: alamar-blue cell viability / cytotoxicity of PEI, doxorubicin and mixtures
Type: cell-based, human
Protocol: All cells were maintained at 37° C. in a humidified incubator with 5% CO2. MDA-MB-231 growing in the DMEM medium were harvested by trypsin-EDTA, and an initial concentration of 1×106 and further dilutions were made and seeded into wells of a 96-well plate (100 μL for each well). The medium without cells was used as negative control, and the plate was incubated for 18 h to allow cell attachment. Then another 100 μL, medium with desirable concentration drug were added into the well. After 24 h and 48 h incubation, 22 μL of alamar-blue (0.5 mg per mL) was added to each well. The absorbance was measured after further 4 h incubation at 530 nm and 590 nm using PowerwaveXPS plate reader. The plate was also incubated for the following 24 hours to measure the maximum dye reduction. Percentage reduction of alamar-blue is typically calculated using equation (1):
[formula] where At, An and Ac are recorded absorbance of test wells for test group, negative control group and positive control group.
Referring to FIG. 2, the cell viability is shown as a function of the molecular weight of the cationic polymer. […] All cells were maintained at 37° C. in a humidified incubator with 5% CO2. MDA-MB-231, 4T1 and HUVECs, HCC-1806, Hs-587T, MCF-7 cells growing in the log phase of growth were harvested by trypsin-EDTA, and an initial concentration of 1×10^6 and further dilutions were made and seeded into wells of a 96-well plate (100 μL, for each well). The medium without cells was used as negative control, and the plate was incubated for 18 h to allow cell attachment. Then another 100 μL medium with desirable concentration drug were added into the well. After 24 h and 48 h incubation, 22 μL, of alamar-blue (0.5 mg per mL) was added to each well. The absorbance was measured after further 4 h incubation at 530 nm and 590 nm using Powerwave XPS plate reader. The plate was also incubated for the following 24 hours to measure the maximum dye reduction. Percentage reduction of alamar-blue is typically calculated using equation (1).

## COc1cccc2c1C(=O)c1c(O)c3c(c(O)c1C2=O)C[C@@](O)(C(=O)CO)C[C@@H]3O[C@H]1C[C@H](N)[C@H](O)[C@H](C)O1 [doxorubicin]
FIG. 1, drug concentrations between 0 μM and 5 μM
  cell viability: approximately 70%
FIG. 2, 0.3 to 0.6 μg doxorubicin per well, 0 μg of PEI
  cell viability: 60-70%
FIG. 3 line 304, doxorubicin less than 5 μM
  cell viability: about 70%

From US10391112B2, “Cationic polymers as co-drugs for chemotherapeutic agents” (Northeastern University, priority 2015, dated 2019)
